Drawing on article PMC4774911, “Biochemical Screening of Five Protein Kinases from Plasmodium falciparum against 14,000 Cell-Active Compounds” (PLoS ONE, 2016), this text covers IC50 and Kd for three compounds.

Targets include BMX (Homo sapiens, UniProt P51813); KIT (Homo sapiens, UniProt P10721); MAPKAPK3 (Homo sapiens, UniProt Q16644); PIK3C3 (Homo sapiens, UniProt Q8NEB9); PRKACA (Homo sapiens, UniProt P17612); STK38L (Homo sapiens, UniProt Q9Y2H1); HIPK1 (Homo sapiens, UniProt Q86Z02); HIPK2 (Homo sapiens, UniProt Q9H2X6); ILK (Homo sapiens, UniProt Q13418); LRRK2 (Homo sapiens, UniProt Q5S007); PLK1 (Homo sapiens, UniProt P53350); ARAF (Homo sapiens, UniProt P10398); PRKCI (Homo sapiens, UniProt P41743); RPS6KB1 (Homo sapiens, UniProt P23443); TAOK1 (Homo sapiens, UniProt Q7L7X3).

What all share (assay): biochemical
In a further experiment the target is BUB1 (Homo sapiens, UniProt O43683). Further details: endogenous in cells; host or cells: K562 cell extract; species or system K562 (extract); replicate k of n = 2 (each experiment ID is one independent experiment; two experiment IDs per compound). To be noted: read-out: KDapp.
BUB1, sequence (O43683 whole entry): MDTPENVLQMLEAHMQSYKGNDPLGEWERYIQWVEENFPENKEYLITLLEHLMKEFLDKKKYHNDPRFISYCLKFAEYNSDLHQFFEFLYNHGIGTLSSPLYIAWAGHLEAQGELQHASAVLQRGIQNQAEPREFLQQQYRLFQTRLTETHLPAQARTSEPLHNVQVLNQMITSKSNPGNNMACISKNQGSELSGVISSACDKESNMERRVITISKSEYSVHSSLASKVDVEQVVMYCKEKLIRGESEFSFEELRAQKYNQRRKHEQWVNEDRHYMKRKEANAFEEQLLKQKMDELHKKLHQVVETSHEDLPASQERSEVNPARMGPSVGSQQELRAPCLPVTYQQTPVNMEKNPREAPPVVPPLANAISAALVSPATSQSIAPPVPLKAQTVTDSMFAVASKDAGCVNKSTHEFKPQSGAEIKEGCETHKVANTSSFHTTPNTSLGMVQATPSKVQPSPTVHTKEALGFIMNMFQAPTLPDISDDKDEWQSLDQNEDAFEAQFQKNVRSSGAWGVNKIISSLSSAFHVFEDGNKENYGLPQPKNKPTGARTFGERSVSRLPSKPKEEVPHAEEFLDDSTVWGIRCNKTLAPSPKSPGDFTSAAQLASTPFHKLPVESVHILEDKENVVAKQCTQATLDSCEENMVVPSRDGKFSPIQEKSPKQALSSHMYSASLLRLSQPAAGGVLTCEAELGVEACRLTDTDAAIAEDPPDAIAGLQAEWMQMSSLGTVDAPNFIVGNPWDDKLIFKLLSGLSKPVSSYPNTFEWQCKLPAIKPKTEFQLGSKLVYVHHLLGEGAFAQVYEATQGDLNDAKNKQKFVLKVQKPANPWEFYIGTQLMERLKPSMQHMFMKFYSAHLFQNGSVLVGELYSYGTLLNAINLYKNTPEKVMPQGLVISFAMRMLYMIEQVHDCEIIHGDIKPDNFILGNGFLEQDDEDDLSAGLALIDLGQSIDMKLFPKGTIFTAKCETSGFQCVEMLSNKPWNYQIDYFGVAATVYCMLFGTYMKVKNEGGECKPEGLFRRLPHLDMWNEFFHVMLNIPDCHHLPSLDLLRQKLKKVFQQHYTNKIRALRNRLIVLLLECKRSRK
Another experiment has as its target GSK3A (Homo sapiens, UniProt P49840). Also noted: endogenous in cells; host or cells: K562 cell extract; species or system K562 (extract); replicate k of n = 2 (each experiment ID is one independent experiment; two experiment IDs per compound). Particulars: read-out: KDapp.
Another experiment has as its target JAK1 (Homo sapiens, UniProt P23458). Also noted: endogenous in cells; host or cells: K562 cell extract; species or system K562 (extract); replicate k of n = 2 (each experiment ID is one independent experiment; two experiment IDs per compound). To be noted: read-out: KDapp.
For another experiment, the target named is MAPK7 (Homo sapiens, UniProt Q13164). Also noted: endogenous in cells; host or cells: K562 cell extract; species or system K562 (extract); replicate k of n = 2 (each experiment ID is one independent experiment; two experiment IDs per compound). Particulars: read-out: KDapp.
MAPK7, sequence (Q13164 whole entry): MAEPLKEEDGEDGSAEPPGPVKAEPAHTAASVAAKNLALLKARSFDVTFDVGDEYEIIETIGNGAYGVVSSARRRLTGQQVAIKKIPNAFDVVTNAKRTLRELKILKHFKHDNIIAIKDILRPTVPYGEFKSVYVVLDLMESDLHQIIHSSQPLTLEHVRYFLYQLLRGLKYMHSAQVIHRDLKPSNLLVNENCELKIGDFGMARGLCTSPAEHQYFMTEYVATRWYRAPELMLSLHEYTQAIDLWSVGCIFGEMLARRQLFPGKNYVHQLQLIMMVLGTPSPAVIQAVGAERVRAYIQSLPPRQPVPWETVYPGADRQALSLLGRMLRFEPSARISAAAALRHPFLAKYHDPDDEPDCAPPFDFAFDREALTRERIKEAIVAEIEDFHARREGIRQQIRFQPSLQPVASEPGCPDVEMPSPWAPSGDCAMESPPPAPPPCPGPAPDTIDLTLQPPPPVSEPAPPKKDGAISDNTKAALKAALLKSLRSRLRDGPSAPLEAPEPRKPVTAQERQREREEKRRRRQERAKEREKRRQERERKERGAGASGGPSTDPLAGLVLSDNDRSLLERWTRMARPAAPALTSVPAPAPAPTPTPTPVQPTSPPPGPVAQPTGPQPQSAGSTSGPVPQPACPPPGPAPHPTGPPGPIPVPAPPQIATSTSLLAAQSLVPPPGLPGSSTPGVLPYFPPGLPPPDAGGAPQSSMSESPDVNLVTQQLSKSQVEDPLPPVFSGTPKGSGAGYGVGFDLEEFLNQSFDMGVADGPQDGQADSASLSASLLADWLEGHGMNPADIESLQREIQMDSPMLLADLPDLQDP
A further experiment deals with MARK2 (Homo sapiens, UniProt Q7KZI7). Also noted: endogenous in cells; host or cells: K562 cell extract; species or system K562 (extract); replicate k of n = 2 (each experiment ID is one independent experiment; two experiment IDs per compound). Particulars: read-out: KDapp.
The target of another experiment is PRKCQ (Homo sapiens, UniProt Q04759). Further details: endogenous in cells; host or cells: K562 cell extract; species or system K562 (extract); replicate k of n = 2 (each experiment ID is one independent experiment; two experiment IDs per compound). To be noted: read-out: KDapp.
PRKCQ, sequence (Q04759 whole entry): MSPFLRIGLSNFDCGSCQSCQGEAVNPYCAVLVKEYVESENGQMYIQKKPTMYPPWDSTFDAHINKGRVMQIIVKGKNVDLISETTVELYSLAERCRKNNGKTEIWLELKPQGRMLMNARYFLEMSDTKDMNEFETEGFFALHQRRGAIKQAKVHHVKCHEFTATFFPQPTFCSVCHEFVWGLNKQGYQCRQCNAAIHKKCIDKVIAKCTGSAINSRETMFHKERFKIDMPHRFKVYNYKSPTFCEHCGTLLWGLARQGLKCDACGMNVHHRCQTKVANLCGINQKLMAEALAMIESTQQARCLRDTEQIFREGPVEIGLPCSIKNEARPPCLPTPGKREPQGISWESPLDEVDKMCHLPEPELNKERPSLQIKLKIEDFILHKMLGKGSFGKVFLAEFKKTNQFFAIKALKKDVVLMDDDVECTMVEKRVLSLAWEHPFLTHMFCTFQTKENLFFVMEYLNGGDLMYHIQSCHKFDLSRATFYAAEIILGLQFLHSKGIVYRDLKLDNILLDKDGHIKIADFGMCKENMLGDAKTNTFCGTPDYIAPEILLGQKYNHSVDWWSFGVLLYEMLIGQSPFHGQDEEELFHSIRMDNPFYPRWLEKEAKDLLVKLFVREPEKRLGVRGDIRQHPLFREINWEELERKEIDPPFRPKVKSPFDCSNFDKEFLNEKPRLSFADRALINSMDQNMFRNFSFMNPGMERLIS
The next experiment concerns the target SIK2 (Homo sapiens, UniProt Q9H0K1). Also noted: endogenous in cells; host or cells: K562 cell extract; species or system K562 (extract); replicate k of n = 2 (each experiment ID is one independent experiment; two experiment IDs per compound). Particulars: read-out: KDapp.
A further experiment deals with STK16 (Homo sapiens, UniProt O75716). Also noted: endogenous in cells; host or cells: K562 cell extract; species or system K562 (extract); replicate k of n = 2 (each experiment ID is one independent experiment; two experiment IDs per compound). Particulars: read-out: KDapp.
STK16, sequence (O75716 whole entry): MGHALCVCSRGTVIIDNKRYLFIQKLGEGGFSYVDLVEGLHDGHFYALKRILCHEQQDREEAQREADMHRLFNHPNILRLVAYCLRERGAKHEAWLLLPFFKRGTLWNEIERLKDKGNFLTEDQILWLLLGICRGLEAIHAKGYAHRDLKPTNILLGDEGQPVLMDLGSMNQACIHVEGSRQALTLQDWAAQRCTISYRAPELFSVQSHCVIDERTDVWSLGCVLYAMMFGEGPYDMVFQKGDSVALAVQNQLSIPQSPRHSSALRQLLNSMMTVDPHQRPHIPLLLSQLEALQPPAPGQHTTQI
A further experiment has as its target T1, STK17A (Homo sapiens, UniProt Q9UEE5).
T1 sequence (Q9UEE5 1-414): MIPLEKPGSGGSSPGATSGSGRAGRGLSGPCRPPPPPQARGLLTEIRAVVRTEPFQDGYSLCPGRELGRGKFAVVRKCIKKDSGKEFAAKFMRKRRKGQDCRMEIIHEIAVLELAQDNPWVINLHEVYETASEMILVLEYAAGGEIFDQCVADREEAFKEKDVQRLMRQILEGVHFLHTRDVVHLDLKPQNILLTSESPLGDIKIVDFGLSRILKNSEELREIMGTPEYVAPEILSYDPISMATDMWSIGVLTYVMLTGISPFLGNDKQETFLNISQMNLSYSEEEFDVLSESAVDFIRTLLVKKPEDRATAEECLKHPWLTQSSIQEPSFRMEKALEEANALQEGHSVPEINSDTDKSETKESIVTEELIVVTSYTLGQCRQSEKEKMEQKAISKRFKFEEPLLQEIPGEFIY
Further details: endogenous in cells; host or cells: K562 cell extract; species or system K562 (extract); replicate k of n = 2 (each experiment ID is one independent experiment; two experiment IDs per compound). Particulars: read-out: KDapp.

“And” between values parts separate entries of the source, which are not always exact repeats. Equal values may be shown once. Some results are limits rather than exact numbers.

GSK3A, sequence (P49840 whole entry): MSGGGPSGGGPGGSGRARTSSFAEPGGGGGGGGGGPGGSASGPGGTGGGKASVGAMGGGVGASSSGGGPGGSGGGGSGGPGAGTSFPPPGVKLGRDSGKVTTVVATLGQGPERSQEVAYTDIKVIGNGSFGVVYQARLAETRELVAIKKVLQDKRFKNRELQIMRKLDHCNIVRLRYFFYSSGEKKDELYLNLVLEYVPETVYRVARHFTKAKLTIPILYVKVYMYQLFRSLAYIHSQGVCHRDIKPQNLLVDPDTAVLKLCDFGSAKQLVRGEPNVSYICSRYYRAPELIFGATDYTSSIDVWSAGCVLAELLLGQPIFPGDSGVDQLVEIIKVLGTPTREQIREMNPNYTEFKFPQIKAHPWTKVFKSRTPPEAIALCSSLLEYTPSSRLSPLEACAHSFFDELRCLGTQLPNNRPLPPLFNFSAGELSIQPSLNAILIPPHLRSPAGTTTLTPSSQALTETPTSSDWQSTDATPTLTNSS
SIK2, sequence (Q9H0K1 whole entry): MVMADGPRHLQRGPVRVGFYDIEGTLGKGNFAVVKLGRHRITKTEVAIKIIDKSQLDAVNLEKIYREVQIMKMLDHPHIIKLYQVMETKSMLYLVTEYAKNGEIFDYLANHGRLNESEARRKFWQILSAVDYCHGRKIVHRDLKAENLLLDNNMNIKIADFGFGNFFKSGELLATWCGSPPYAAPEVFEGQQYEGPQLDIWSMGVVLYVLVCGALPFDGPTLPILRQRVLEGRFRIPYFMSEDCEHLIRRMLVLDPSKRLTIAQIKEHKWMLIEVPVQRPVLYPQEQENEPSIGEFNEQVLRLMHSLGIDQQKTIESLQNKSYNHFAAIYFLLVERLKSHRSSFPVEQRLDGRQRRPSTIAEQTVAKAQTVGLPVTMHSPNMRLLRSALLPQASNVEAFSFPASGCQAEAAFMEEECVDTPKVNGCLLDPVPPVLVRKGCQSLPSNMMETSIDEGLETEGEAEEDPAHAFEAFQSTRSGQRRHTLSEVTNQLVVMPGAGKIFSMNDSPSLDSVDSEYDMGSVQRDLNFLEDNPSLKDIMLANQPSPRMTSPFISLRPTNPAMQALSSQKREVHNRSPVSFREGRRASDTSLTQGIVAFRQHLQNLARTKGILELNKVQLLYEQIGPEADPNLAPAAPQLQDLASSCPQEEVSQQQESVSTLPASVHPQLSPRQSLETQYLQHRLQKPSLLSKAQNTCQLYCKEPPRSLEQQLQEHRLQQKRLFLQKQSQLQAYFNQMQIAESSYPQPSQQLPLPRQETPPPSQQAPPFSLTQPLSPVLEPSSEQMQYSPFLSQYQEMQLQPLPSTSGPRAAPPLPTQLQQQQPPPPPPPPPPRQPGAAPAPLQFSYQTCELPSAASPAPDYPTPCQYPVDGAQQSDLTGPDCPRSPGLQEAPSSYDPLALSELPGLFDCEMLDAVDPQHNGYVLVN
ILK, sequence (Q13418 whole entry): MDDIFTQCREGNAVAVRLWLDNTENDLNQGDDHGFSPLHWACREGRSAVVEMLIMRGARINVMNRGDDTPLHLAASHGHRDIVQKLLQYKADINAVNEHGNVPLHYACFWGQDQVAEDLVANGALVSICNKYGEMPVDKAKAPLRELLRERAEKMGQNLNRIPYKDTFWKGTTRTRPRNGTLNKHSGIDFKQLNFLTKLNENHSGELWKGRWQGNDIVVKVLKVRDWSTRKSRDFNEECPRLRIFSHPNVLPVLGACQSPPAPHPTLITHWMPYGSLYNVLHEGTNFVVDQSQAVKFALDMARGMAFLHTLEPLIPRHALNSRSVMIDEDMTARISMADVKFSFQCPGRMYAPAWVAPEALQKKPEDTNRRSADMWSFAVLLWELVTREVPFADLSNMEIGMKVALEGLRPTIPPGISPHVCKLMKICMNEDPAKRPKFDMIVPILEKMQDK

On to `CN1CCN(c2ccc(Nc3ncc(C#N)c(Nc4ccccc4C(N)=O)n3)cc2)CC1.Cl` [TCMDC-134116], for which the IC50 against BMX was 620 nM; against KIT, 1300 nM; against MAPKAPK3, above 20000 nM; on PIK3C3 it was 1100 nM; against PRKACA, 1500 nM; on STK38L, 600 nM. For the same compound, the Kd on BUB1 is 127 nM and 110 nM; at GSK3A, 470 nM and 369 nM; on JAK1 it was 13.1 nM and 19.5 nM; at MAPK7, 140 nM and 190 nM; on MARK2, 121 nM and 115 nM; at PRKCQ, 858 nM and 650 nM. The Kd at SIK2 was 10.6 nM; at STK16 it was 135 nM and 190 nM; at STK17A, 109 nM.
With `Cl.NCC1(c2nc(-c3ccc(Cl)c(O)c3)c(-c3ccncc3)[nH]2)CCCCC1` [TCMDC-141154], the 50% inhibitory concentration (IC50) against HIPK1, on HIPK2, against ILK, against LRRK2 and at PLK1 was above 20000 nM each time. In addition, the Kd at BUB1 is 82.5 nM and 58.4 nM; at MAPK7, 549 nM and 949 nM; at PRKCQ, 786 nM and 1000 nM; at SIK2, 173 nM and 161 nM.
Consider `CN(C)CC(O)COc1ccc(Nc2ncc([N+](=O)[O-])c(Nc3ccccc3O)n2)cc1.O=C(O)C(F)(F)F` (stereo not drawn) [TCMDC-141399], for which the IC50 was above 20000 nM on ARAF, above 20000 nM on PRKCI, above 20000 nM against RPS6KB1 and 6100 nM against TAOK1. Besides, the Kd at GSK3A was 2250 nM and 2480 nM; at JAK1, 272 nM and 346 nM; at MARK2, 3510 nM; on STK16 it was 551 nM; on STK17A it was 2550 nM.
